From patent publication US8110543B2, “Anti-invasive and anti-angiogenic compositions” (Angstrom Pharmaceuticals, Inc., priority 1997, dated 2012)

Columns and labels:
[1] = test system: U87 tumors; assay: U87 glioblastoma orthotopic model; type: in vivo, mice; conditions: tumor sections, mouse-CD31 immunostaining
Procedure: U87 cells were inoculated into the ventricles of nude mice and treatment was initiated 72 hrs after inoculation. Tumor volume was determined using caliper measurements after euthanasia and necropsy.
A: Control; B: Å6 only; C: CDDP only; D: Å6+CDDP.
U87 tumors were surgically inoculated into the cerebral ventricles of mice. The animals were allowed to recover for 72 hours at which time treatment with Å6 (75 mg/kg/day IP bid), CDDP (3 mg/kg/day given every other day from day 4×6 administrations), or a combination of Å6+CDDP was initiated,
Animals were treated for 21 days at which time they were euthanized and their brains evaluated for the presence of tumor. Transverse sections were stained with hematoxylin and eosin (H&E).
Tumor sections were also evaluated for microvessel density using antibodies specific for mouse-CD31 in immunostaining. Very few CD31^+ foci were evident in animals treated with the combination of Å6+CDDP.
Tumors were established as in the previous section, and the same therapeutic regimens were employed. Treatment was discontinued at day 21, and survival was measured. Control animals appeared moribund around day 25 and all of the animals in this group were dead by day 30.

[2] = parameters: species or system mice; conditions: mouse, in vivo
Procedure: CDDP was tested at a dose of 3 mg/kg/day given every other day from day 4×6 administrations, which converts to approximately 6 mg/m^2 per administration. This is a substantially lower dose than that typically given to human patients (20-40 mg/m^2 for most tumors although doses as high as 200 mg/m^2 have been reported in neuroblastomas; the dose depends on the regimen used) since dose limiting toxicity (as exemplified by weight loss) occurs in mice at doses greater than 6 mg/m^2.

Q: For [NH2][Pt]([NH2])([Cl])[Cl] [CDDP, cisplatin, reference compound], which “microvessel density (CD31+ foci), angiogenesis” value [1] is on record?
A: inhibited angiogenesis to some extent

Q: And the “dose at which dose limiting toxicity (weight loss) occurs” value [2]?
A: greater than 6 mg/m^2
